Data from PMC6287599, “2,6-Bis(2-Benzimidazolyl)Pyridine (BBP) Is a Potent and Selective Inhibitor of Small Conductance Calcium-Activated Potassium (SK) Channels” (Frontiers in Pharmacology, 2018).
“Also recorded” adds a separate entry of the source.

Target: T1, Kv4.3/KCHIP2 (Homo sapiens, UniProt Q9UK17)
T1 sequence (Q9UK17 1-655): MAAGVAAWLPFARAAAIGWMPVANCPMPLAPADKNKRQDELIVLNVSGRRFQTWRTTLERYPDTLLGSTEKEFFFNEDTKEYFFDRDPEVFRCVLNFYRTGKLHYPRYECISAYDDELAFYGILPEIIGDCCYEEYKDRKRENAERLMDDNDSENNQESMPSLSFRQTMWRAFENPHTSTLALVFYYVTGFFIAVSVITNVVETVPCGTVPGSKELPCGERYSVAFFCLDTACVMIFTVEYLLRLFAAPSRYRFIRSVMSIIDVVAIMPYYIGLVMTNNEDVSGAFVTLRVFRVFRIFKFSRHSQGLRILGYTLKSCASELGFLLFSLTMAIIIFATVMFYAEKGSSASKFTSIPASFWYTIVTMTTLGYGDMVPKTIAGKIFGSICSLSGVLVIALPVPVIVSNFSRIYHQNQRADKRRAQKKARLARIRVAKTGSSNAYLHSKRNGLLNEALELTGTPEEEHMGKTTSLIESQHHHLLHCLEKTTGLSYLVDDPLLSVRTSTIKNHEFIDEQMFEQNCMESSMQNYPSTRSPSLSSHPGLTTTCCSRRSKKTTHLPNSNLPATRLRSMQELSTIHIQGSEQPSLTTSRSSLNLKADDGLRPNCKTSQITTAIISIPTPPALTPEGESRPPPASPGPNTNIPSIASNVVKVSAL
T1 sequence (Q9NS61 1-270 partner): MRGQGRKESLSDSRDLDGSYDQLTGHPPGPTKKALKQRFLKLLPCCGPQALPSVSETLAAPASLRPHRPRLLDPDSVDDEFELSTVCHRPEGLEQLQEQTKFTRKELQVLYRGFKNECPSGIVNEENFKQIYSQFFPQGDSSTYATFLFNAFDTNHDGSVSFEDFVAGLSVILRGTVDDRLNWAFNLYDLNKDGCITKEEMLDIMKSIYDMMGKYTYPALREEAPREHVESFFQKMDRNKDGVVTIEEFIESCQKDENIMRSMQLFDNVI
Experiment: Two-electrode voltage clamp in Xenopus laevis oocytes, Kv4.3/KCHIP2
Assay type: cell-based
Conditions: BBP 10 μM, TEVC, n = 5
Procedure: cRNA was prepared from linearized plasmids using the mMESSAGE mMACHINE T7 kit (Ambion, USA) and quantified by UV spectroscopy (NanoDrop, Thermo Scientific, Wilmington, USA). Xenopus laevis oocytes were acquired from EcoCyte Bioscience (Castrop-Rauxel, Germany). Oocytes were injected with 50 nL cRNA and currents were recorded after 2 days of incubation at 19°C. Currents were recorded at a sampling rate of 10 kHz using a TEVC amplifier (Dagan CA-1B; IL, USA), and borosilicate glass recording electrodes (Module Ohm, Herlev, Denmark), made with a DMZ Universal Puller (Zeitz Instruments, Martinsried, Germany) with a resistance of 0.5–1 MΩ when filled with 2 M KCl. Oocytes were superfused with Kulori (pH 7.4) solution containing NaCl 90 mM, KCl 4 mM, MgCl2 1 mM, CaCl2 1 mM, 4-(2-hydroxyethyl)-1-piperazineethanesulfonic acid 5 mM, and currents were elicited with the voltage protocols previously indicated (Skarsfeldt et al., [2016]), from a holding potential of −80 mV. […]
To assess the effect of BBP on other calcium-activated potassium channels (hBK, hSK3 WT, rSK3 H491N, and hIK), each individual current was first normalized to its cell size using membrane's capacitance (pA/pF) before statistical analysis. […] Statistical significance between saline and the effect of both BBP and the corresponding reference compound was determined for each channel using one-way ANOVA analysis. […]

c1cc(-c2nc3ccccc3[nH]2)nc(-c2nc3ccccc3[nH]2)c1 [BBP, 2,6-Bis(2-benzimidazolyl)pyridine]
Effect on Kv4.3/KCHIP2 current: did not have any effect; also recorded: did not significantly affect
